From patent publication US20020051828A1, “Mixtures which can be isolated from eugenia jambolana lamarck seeds, their preparation and the use of these mixtures and some of their constituents as medicaments” (priority 1996, published 2002)

Key:
[1] = oral toxicity (LD50) in mice; details: mouse, in vivo, orally in mice
Method: The mixtures according to the invention, the sodium oxamate and the compounds of formula (I) have a low toxicity. Their LD50 is greater than 2000 mg/kg orally in mice.

[2] = system: mice made diabetic with streptozotocin; experiment: glycaemia of mice made diabetic with streptozotocin; assay type: in vivo, Swiss albino mice; details: for GLYCAEMIA AT D5 / % change in glycaemia: 0.5 mg/mouse/day by gastric intubation for 4 days; for GLYCAEMIA AT D5: D5, after 4 h fasting; for % change in glycaemia: glycaemia D5 versus D1; for GLYCAEMIA AT D1: 0.5 mg/mouse/day by gastric intubation, D1, start of treatment, after 4 h fasting
Method: (§1) The hypoglycaemic activity of the mixtures I and II, of sodium oxamate and of the compounds of formula (I) have been determined in mice made diabetic with streptozocin and in normal mice with post-prandial hyperglycaemia according to the following procedures:
I—Mice Made Diabetic with Streptozotocin
Swiss albino mice weighing between 22 and 25 g are made diabetic with streptozotocin administered by intraperitoneal injection at a dose of 210 or 265 mg/Kg of mouse, diluted in a citrate buffer at a concentration such that each mouse receives 0.2 ml of the solution on day 1 (D1). 3 to 4 days later, a check is made on 2 to 3 mice to see if the diabetes is established (glycaemia greater than 7.2 mmol/liter (130 mg per 100 ml). The glycaemia is then measured after starving for 4 hours. If the mice have become diabetic, they are divided into batches of 5 to 7 mice. Each of the batches receives, from D1 and daily, a selected dose of product. The administration is made once a day and at a fixed time, by gastric intubation and in a volume of 0.4 ml of distilled water as vehicle. Two batches of controls are made up:
one batch of untreated diabetic mice
These two batches of controls receive 0.4 ml of vehicle by gastric intubation and simultaneously with the treated mice.
The treatment lasts for 4 days. On the 5th day (D5), there is no administration of product. After fasting for 4 hours, the final glycaemias are measured.

[3] = system: normal mice with post-prandial hyperglycaemia; experiment: glycaemia of normal mice with post-prandial hyperglycaemia; assay type: in vivo, Swiss albino mice; details: 0.5 mg/mouse by gastric intubation; for GLYCAEMIA AT T0: T0, before administration; for GLYCAEMIA AT T60: T60, one hour after administration; for % inhibition: glycaemia T60 versus T0
Method: as §1
II—Normal Mice with Post-prandial Hyperglycaemia
Swiss albino mice weighing between 22 and 25 g are made to have post-prandial hyperglycaemia by the following procedure:
food in excess for 1 hour
The glycaemia is measured at the end of the last two hours of fasting, which constitutes the glycaemia at time T0. The mice are then divided into homogeneous batches according to the measured glycaemias. The products to be evaluated are administered without delay by gastric intubation in 0.4 ml of distilled water. The control batch receives the excipient (0.4 ml of distilled water). After one hour, the final glycaemias are measured which constitute the glycaemia at time T60.

| SMILES | LD50 [1] [mg/kg] | GLYCAEMIA AT D5 [2] [mg/100 ml] | % change in glycaemia [2] [%] | GLYCAEMIA AT D1 [2] [mg/100 ml] | GLYCAEMIA AT T0 [3] [mg/100 ml] | GLYCAEMIA AT T60 [3] [mg/100 ml] | % inhibition [3] [%] |
| --- | --- | --- | --- | --- | --- | --- | --- |
| NC(=O)C(=O)[O-].[Na+] [Sodium oxamate, sodium oxamate] | > 2000 | 89.90 | −41.46 | 153.40 | 136.46 | 102.93 | −24.57 |
| OCC(O)C(O)C(O)c1cnc(C(O)C(O)C(O)CO)cn1 (stereo not shown) [2,5-di(tetrahydroxybutyl)pyrazine, 2,5-di-(tetrahydroxybutyl)pyrazine] |  |  |  |  | 136.25 | 102.41 | −24.83 |
| OCC(O)C(O)Cc1cnc(C(O)C(O)C(O)CO)cn1 (stereo not shown) [2-(tetrahydroxybutyl)-5-(2′,3′,4′-trihydroxybutyl)pyrazine] |  | 164.50 | −45.93 | 304.25 | 128.75 | 90.50 | −29.70 |
